The target of this experiment is hTREM2 (Homo sapiens, UniProt Q9NZC2). Briefly: TREM2 agonist potency by Syk phosphorylation (AlphaLisa) in HEK293T-hTREM2 cells, used for Examples 306-429. The conditions noted are these: HEK293 Cells. Also on record: expressed in transfected cells; host or cells: HEK293T (HEK293T-hTREM2 cells). The class given is cell-based. How it is done: In vitro Measurement of Triggering Receptor Expressed on Myeloid Cells 2 activity using cellular phosphorylation of Spleen Tyrosine Kinase (“Syk”) Assays used for Examples 306-429
Measurement of TREM2 agonist potency was done using a HEK cell line expressing human TREM2 and DAP12 (HEK293T-hTREM2 cells). Binding of small molecules to, and activation of, TREM2 increases the phosphorylation of Syk. The resultant levels of Syk phosphorylation were measured using a commercial AlphaLisa reagent kit. To perform the assay, HEK-hTREM2 cells were plated at 14,000 cells per well in a 384 well plate, in 25 μL, of complete growth media and incubated at 37° C., 5% CO2 for 20-24 hours. Prior to the assay, test compounds were diluted in the 384 well plates in assay buffer and allowed to equilibrate for 30 minutes. Growth media was removed from cell plates by inversion on blotting paper, and 25 μL of test compounds in assay buffer was added to cells. Cells were incubated for 45 minutes at room temperature. After 45 minutes, assay buffer was removed and 10 μL of lysis buffer was added. Plates were shaken for 20 minutes at 350 RPM at room temperature. After complete lysis, AlphaLisa reagents were added to the lysate, and fluourescence intensity was measured using a Perkin Elmer Envision plate reader. Intensities were used to generate a standard curve, and % activation was calculated. Curve fitting was performed using Prism v9 software, log(agonist) vs response-variable slope (four parameters), and EC50s were calculated from the curve fit.
The results presented in Table 20 have been generated with the in vitro assay described above for Examples 306-429. This assay may be used to test any of the compounds described herein to assess and characterize a compound's ability to act as an agonist of TREM2.
In general terms: Bead proximity is the source of the signal in Alpha formats.

Where only a bound is given, the exact number is not on record here.

One may read the EC50 as the concentration giving half of the maximal effect. Read a low EC50 as greater potency.

Chain of hTREM2 (Q9NZC2 19-230): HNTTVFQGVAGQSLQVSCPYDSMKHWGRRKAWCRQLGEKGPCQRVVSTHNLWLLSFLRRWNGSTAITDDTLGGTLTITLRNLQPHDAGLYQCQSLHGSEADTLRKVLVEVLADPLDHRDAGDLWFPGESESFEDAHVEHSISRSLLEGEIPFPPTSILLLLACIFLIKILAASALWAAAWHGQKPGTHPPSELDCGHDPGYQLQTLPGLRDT
Chain of hTREM2 (O43914 22-113 partner): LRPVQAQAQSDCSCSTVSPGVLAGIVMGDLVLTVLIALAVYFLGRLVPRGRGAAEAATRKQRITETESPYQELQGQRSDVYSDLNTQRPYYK

Compound `Cc1nc2cc(N3CCOC(c4cnn(C5CC5)c4)C3)nc(-c3ccc(F)cc3F)c2nc1C` (stereo not shown) [Example 342, 2-(1-cyclopropyl-1H-pyrazol-4-yl)-4-(5-(2,4-difluorophenyl)-2,3-dimethylpyrido[3,4-b]pyrazin-7-yl)morpholine] displayed an EC50 of no more than 50 nM.
Next, `Cc1cc([C@H]2C[C@@H](c3cc4nc(C)c(C)nc4c(-c4ccc(F)cc4F)n3)CCO2)ccn1` [Example 317, 5-(2,4-difluorophenyl)-2,3-dimethyl-7-[(2R,4S)-2-(2-methyl-4-pyridyl)tetrahydropyran-4-yl]pyrido[3,4-b]pyrazine]: no more than 50 nM.
Next, `COc1cc([C@@H]2CN(c3nc(-c4ccc(Cl)cc4F)c4nc(C)c(C)nc4n3)CCO2)ccn1` [Example 336, (R)-4-(4-(4-chloro-2-fluorophenyl)-6,7-dimethylpteridin-2-yl)-2-(2-methoxypyridin-4-yl)morpholine]: 50 to 500 nM; `Cc1cnc2c(-c3ccc(Cl)cc3F)nc(N3C[C@@H](c4cnn(C5CC5)c4)O[C@@H](C)C3)nc2n1` [Example 423, (2R,6S)-4-(4-(4-chloro-2-fluorophenyl)-7-methylpteridin-2-yl)-2-(1-cyclopropyl-1H-pyrazol-4-yl)-6-methylmorpholine]: 50 to 500 nM.
Next, `Cc1cc([C@H]2C[C@@H](c3cc4nc(C)cnc4c(-c4ccc(F)cc4F)n3)CCO2)ccn1` (racemic) [Example 307, 5-(2,4-difluorophenyl)-2-methyl-7-(2-(2-methylpyridin-4-yl)tetrahydro-2H-pyran-4-yl)pyrido[3,4-b]pyrazine]: 50 to 500 nM; `Cc1nc2cc(N3CCOC(c4cnn(C5CC5)c4)C3)nc(-c3ccc(Cl)cc3F)c2nc1C` (stereo not shown) [Example 348, 4-(5-(4-chloro-2-fluorophenyl)-2,3-dimethylpyrido[3,4-b]pyrazin-7-yl)-2-(1-cyclopropyl-1H-pyrazol-4-yl)morpholine]: no more than 50 nM; `COc1cc([C@H]2CN(c3nc(-c4ccc(Cl)cc4F)c4nc(C)c(C)nc4n3)CCO2)ccn1` [Example 335, (S)-4-(4-(4-chloro-2-fluorophenyl)-6,7-dimethylpteridin-2-yl)-2-(2-methoxypyridin-4-yl)morpholine]: no more than 50 nM.
`Cc1cc(C2CC(c3cc4nc(C)ccc4c(-c4ccc(F)cc4F)n3)CCO2)ccn1` (stereo not shown) [Example 326, 5-(2,4-difluorophenyl)-2-methyl-7-(2-(2-methylpyridin-4-yl)tetrahydro-2H-pyran-4-yl)-1,6-naphthyridine] had an EC50 of no more than 50 nM.
As for `Cc1cnc2c(-c3ccc(Cl)cc3F)nc(N3C[C@H](C)O[C@@H](c4cnn(C5CC5)c4)C3)nc2n1` (racemic) [Example 374, 4-(4-(4-chloro-2-fluorophenyl)-7-methylpteridin-2-yl)-2-(1-cyclopropyl-1H-pyrazol-4-yl)-6-methylmorpholine], the figure is no more than 50 nM.
Next, `Cc1cc(C2CN(c3cc4nc(C)c(C)cc4c(-c4ccc(Cl)cc4F)n3)CCO2)ccn1` (stereo not shown) [Example 344, 4-(5-(4-chloro-2-fluorophenyl)-2,3-dimethyl-1,6-naphthyridin-7-yl)-2-(2-methylpyridin-4-yl)morpholine]: no more than 50 nM; `Cc1nc2cc(N3CC(C)OC(c4cnn(C5CC5)c4)C3)nc(-c3ccc(Cl)cc3F)c2nc1C` (stereo not shown) [Example 367, 4-(5-(4-chloro-2-fluorophenyl)-2,3-dimethylpyrido[3,4-b]pyrazin-7-yl)-2-(1-cyclopropyl-1H-pyrazol-4-yl)-6-methylmorpholine]: 50 to 500 nM.
Next, `Cc1cnc2c(C34CC(C(F)(F)F)(C3)C4)nc(N3C[C@@H](C)O[C@@H](c4cnn(C5CC5)c4)C3)cc2n1` (racemic) [Example 377, 2-(1-cyclopropylpyrazol-4-yl)-6-methyl-4-[2-methyl-5-[3-(trifluoromethyl)-1-bicyclo[1.1.1]pentanyl]pyrido[3,4-b]pyrazin-7-yl]morpholine]: 50 to 500 nM.
Take `Cc1cc([C@@H]2C[C@H](c3cc4nc(C)c(C)nc4c(-c4ccc(F)cc4F)n3)CCO2)ccn1` [Example 316, 5-(2,4-difluorophenyl)-2,3-dimethyl-7-[(2S,4R)-2-(2-methyl-4-pyridyl)tetrahydropyran-4-yl]pyrido[3,4-b]pyrazine]: the EC50 lay within 50 to 500 nM.
`Cc1cc([C@H]2CN(c3nc(-c4cc(F)c(Cl)cc4F)c4nc(C)c(C)nc4n3)CCO2)ccn1` [Example 387, (2S)-4-[4-(4-chloro-2,5-difluoro-phenyl)-6,7-dimethyl-pteridin-2-yl]-2-(2-methyl-4-pyridyl)morpholine]: the EC50 is no more than 50 nM.
As for `Cc1cc([C@H]2C[C@@H](c3cc4nc(C)c(C)cc4c(-c4ccc(F)cc4F)n3)CCO2)ccn1` (racemic) [Example 399, 5-(2,4-difluorophenyl)-2,3-dimethyl-7-[2-(2-methyl-4-pyridyl)tetrahydropyran-4-yl]-1,6-naphthyridine], the figure is no more than 50 nM.
Next, `Cc1cnc2c(C34CC(C(F)(F)F)(C3)C4)nc([C@@H]3CCO[C@@H](c4cnn(C5CC5)c4)C3)nc2n1` [Example 406, 2-((2R,4R)-2-(1-cyclopropyl-1H-pyrazol-4-yl)tetrahydro-2H-pyran-4-yl)-7-methyl-4-(3-(trifluoromethyl)bicyclo[1.1.1]pentan-1-yl)pteridine]: 500 to 3000 nM.
As for `Cc1cc([C@@H]2C[C@H](c3nc(-c4cc(F)c(Cl)c(F)c4)c4nc(C)c(C)nc4n3)CCO2)ccn1` (racemic) [Example 389, 4-(4-chloro-3,5-difluoro-phenyl)-6,7-dimethyl-2-[2-(2-methyl-4-pyridyl)tetrahydropyran-4-yl]pteridine], the figure is no more than 50 nM; as for `Cc1cnc2c(-c3ccc(F)cc3F)nc([C@H]3CCO[C@@H](c4cnn(C5CC5)c4)C3)cc2n1` (racemic) [Example 388, 5-(2,4-difluorophenyl)-2-methyl-7-[2-(1-cyclopropylpyrazol-4-yl)tetrahydropyran-4-yl]pyrido[3,4-b]pyrazine], 50 to 500 nM; as for `Cc1nc2nc(N3CCOC(c4cnn(C5CC5)c4)C3)nc(-c3ccc(Cl)cc3F)c2nc1C` (stereo not shown) [Example 381, 4-[4-(4-chloro-2-fluoro-phenyl)-6,7-dimethyl-pteridin-2-yl]-2-(1-cyclopropylpyrazol-4-yl)morpholine], no more than 50 nM.
Turning to `Cc1cnc2c(-c3ccc(F)cc3F)nc([C@H]3C[C@@H](C)O[C@@H](c4cnn(C5CC5)c4)C3)cc2n1` [Example 417, 7-((2R,4S,6R)-2-(1-cyclopropyl-1H-pyrazol-4-yl)-6-methyltetrahydro-2H-pyran-4-yl)-5-(2,4-difluorophenyl)-2-methylpyrido[3,4-b]pyrazine], the EC50 fell in the range of 50 to 500 nM.
Next, `Cc1nc2nc([C@H]3CCO[C@@H](c4cnn(C5CC5)c4)C3)nc(C34CC(C(F)(F)F)(C3)C4)c2nc1C` (stereo in doubt) [Example 366, 2-(2-(1-cyclopropyl-1H-pyrazol-4-yl)tetrahydro-2H-pyran-4-yl)-6,7-dimethyl-4-(3-(trifluoromethyl)bicyclo[1.1.1]pentan-1-yl)pteridine]: no more than 50 nM.
Next, `Cc1cnc2c(-c3ccc(F)cc3F)nc([C@@H]3CCO[C@@H](c4cnn(C5CC5)c4)C3)nc2n1` [Example 338, 2-((2R,4R)-2-(1-cyclopropyl-1H-pyrazol-4-yl)tetrahydro-2H-pyran-4-yl)-4-(2,4-difluorophenyl)-7-methylpteridine]: 500 to 3000 nM.
